From patent US11377442B2, “Small molecule agonists and antagonists of NR2F6 activity” (ZANDER THERAPEUTICS, INC., priority 2016, dated 2022)
Like-named read-outs stand apart in the source and are kept apart here.

Key:
Type in all cases: cell-based
NR2F6 = molecular target: T1, NR2F6 (Homo sapiens, UniProt P10588); test: NR2F6 agonist screening, Firefly signal cmpd/DMSO; conditions: F4
T1 construct: expressed in transfected cells; also transient transfection
T1 sequence (P10588 1-404): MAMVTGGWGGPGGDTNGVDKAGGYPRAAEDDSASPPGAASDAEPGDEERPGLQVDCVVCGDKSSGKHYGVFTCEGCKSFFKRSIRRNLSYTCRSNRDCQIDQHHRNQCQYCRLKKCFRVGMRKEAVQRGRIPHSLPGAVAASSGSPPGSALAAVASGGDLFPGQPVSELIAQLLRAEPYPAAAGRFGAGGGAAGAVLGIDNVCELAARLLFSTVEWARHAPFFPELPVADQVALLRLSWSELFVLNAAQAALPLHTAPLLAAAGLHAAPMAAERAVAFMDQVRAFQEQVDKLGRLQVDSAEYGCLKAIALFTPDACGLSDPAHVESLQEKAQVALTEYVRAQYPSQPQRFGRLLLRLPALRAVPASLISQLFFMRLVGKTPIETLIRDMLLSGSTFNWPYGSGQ

Renilla = Renilla signal in NR2F6 agonist screening, cmpd/DMSO; conditions: Renilla, F4
HEK293 pGL4 = test: Firefly_pGL signal, cmpd/DMSO (pGL4 control cells); conditions: Homo sapiens
NR2F6 LBD = molecular target: T2, NR2F6 LBD (Homo sapiens, UniProt P10588); test: NR2F6 LBD transient transfection; conditions: LBD
T2 construct: expressed in transfected cells
T2 sequence (P10588 165-393 limits assumed): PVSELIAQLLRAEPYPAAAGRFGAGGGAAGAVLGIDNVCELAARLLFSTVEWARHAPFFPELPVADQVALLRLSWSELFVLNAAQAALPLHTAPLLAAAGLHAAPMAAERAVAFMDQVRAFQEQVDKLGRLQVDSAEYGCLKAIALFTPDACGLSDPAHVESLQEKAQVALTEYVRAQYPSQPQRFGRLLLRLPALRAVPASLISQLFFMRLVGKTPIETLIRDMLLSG
How it was run: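 LBD-transfected cells treated at 40, 10, 2 and 0.5 μM (4 replicates); cytotoxicity measured in parallel, normalized to DMSO (0%) and zero signal (100%). Higher concentrations excluded where signal loss reflected toxicity.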

[1] = read-out: Renilla, F4, cmpd/DMSO (mean)
[2] = 1% FBS, read-out: Renilla, F4, 1% FBS, cmpd/DMSO (mean)
[3] = 10% FBS, read-out: Renilla, F4, 10% FBS, cmpd/DMSO (mean)

In the case of `CC(=O)N1CCN([C@H]2CS(=O)(=O)C[C@@H]2S(=O)(=O)c2ccc(F)c(C)c2)CC1` [Compound D116], the “Firefly F4, cmpd/DMSO (mean)” value (NR2F6; 0.5 uM) is reported as 1.5, the “Firefly F4, cmpd/DMSO (mean)” value (NR2F6; 2 uM) is reported as 1.0 and the “Firefly F4, cmpd/DMSO (mean)” value (NR2F6; 10 uM) is reported as 1.4. The “Firefly F4, cmpd/DMSO (mean)” value (NR2F6; 40 uM) was 1.2, the “Firefly, F4, 1% FBS, cmpd/DMSO (mean)” value (NR2F6; 0.5 uM) was 1.2 and the “Firefly, F4, 1% FBS, cmpd/DMSO (mean)” value (NR2F6; 2 uM) was 0.9. The “Firefly, F4, 1% FBS, cmpd/DMSO (mean)” value (NR2F6; 10 uM) was 0.9, the “Firefly, F4, 1% FBS, cmpd/DMSO (mean)” value (NR2F6; 40 uM) was 1.1 and the “Firefly, F4, 10% FBS, cmpd/DMSO (mean)” value (NR2F6; 0.5 uM) was 1.1. For the same compound, the “Firefly, F4, 10% FBS, cmpd/DMSO (mean)” value (NR2F6; 2 uM) was 1.4, the “Firefly, F4, 10% FBS, cmpd/DMSO (mean)” value (NR2F6; 10 uM) was 1.3 and the “Firefly, F4, 10% FBS, cmpd/DMSO (mean)” value (NR2F6; 40 uM) was 0.8. It also gave a fold induction at 0.5 µM (Renilla; [1]) of 1, a fold induction at 2 µM (Renilla; [1]) of 1.1 and a fold induction at 10 µM (Renilla; [1]) of 1.1. For the same compound, the fold induction at 40 µM (Renilla; [1]) was 1.1, the fold induction at 0.5 µM (Renilla; [2]) was 1 and the fold induction at 2 µM (Renilla; [2]) was 1.1. It also gave a fold induction at 10 µM (Renilla; [2]) of 1, a fold induction at 40 µM (Renilla; [2]) of 1.2 and a fold induction at 0.5 µM (Renilla; [3]) of 0.8. For the same compound, the fold induction at 2 µM (Renilla; [3]) was 0.9, the fold induction at 10 µM (Renilla; [3]) was 0.9 and the fold induction at 40 µM (Renilla; [3]) was 1.2. The fold induction at 0.5 µM (HEK293 pGL4; HEK293, 0.5 uM, pGL4, read-out: Firefly pGL4, cmpd/DMSO (mean)) was 1, the fold induction at 2 µM (HEK293 pGL4; HEK293, 2 uM, pGL4, read-out: Firefly pGL4, cmpd/DMSO (mean)) was 1.2 and the fold induction at 10 µM (HEK293 pGL4; HEK293, 10 uM, pGL4, read-out: Firefly pGL4, cmpd/DMSO (mean)) was 1.1. It also gave a fold induction at 40 µM (HEK293 pGL4; HEK293, 40 uM, pGL4, read-out: Firefly pGL4, cmpd/DMSO (mean)) of 1.4, a fold induction at 0.5 µM (HEK293 pGL4; HEK293, pGL4, 1% FBS, 0.5 uM, read-out: Firefly, pGL4, 1% FBS, cmpd/DMSO (mean)) of 1.6 and a fold induction at 2 µM (HEK293 pGL4; HEK293, pGL4, 1% FBS, 2 uM, read-out: Firefly, pGL4, 1% FBS, cmpd/DMSO (mean)) of 1. It also gave a fold induction at 10 µM (HEK293 pGL4; HEK293, pGL4, 1% FBS, 10 uM, read-out: Firefly, pGL4, 1% FBS, cmpd/DMSO (mean)) of 1.7, a fold induction at 40 µM (HEK293 pGL4; HEK293, pGL4, 1% FBS, 40 uM, read-out: Firefly, pGL4, 1% FBS, cmpd/DMSO (mean)) of 1.4 and a fold induction at 0.5 µM (HEK293 pGL4; HEK293, pGL4, 10% FBS, 0.5 uM, read-out: Firefly, pGL4, 10% FBS, cmpd/DMSO (mean)) of 1.1. It also gave a fold induction at 2 µM (HEK293 pGL4; HEK293, pGL4, 10% FBS, 2 uM, read-out: Firefly, pGL4, 10% FBS, cmpd/DMSO (mean)) of 1.1, a fold induction at 10 µM (HEK293 pGL4; HEK293, pGL4, 10% FBS, 10 uM, read-out: Firefly, pGL4, 10% FBS, cmpd/DMSO (mean)) of 1.4 and a fold induction at 40 µM (HEK293 pGL4; HEK293, pGL4, 10% FBS, 40 uM, read-out: Firefly, pGL4, 10% FBS, cmpd/DMSO (mean)) of 1.5. For the same compound, the “Firefly LBD, cmpd/DMSO (mean)” value (NR2F6 LBD; 0.5 uM) was 0.9, the “Firefly LBD, cmpd/DMSO (mean)” value (NR2F6 LBD; 2 uM) was 1.2 and the “Firefly LBD, cmpd/DMSO (mean)” value (NR2F6 LBD; 10 uM) was 1.1. For the same compound, the “Firefly LBD, cmpd/DMSO (mean)” value (NR2F6 LBD; 40 uM) was 1.2.
